Measured values published in PMC3282769 (PLoS ONE, 2012).

How the values were obtained:
[1] = target: T1, OTC (ornithine transcarbamylase) (Enterococcus faecalis, UniProt Q839Q5); test: citrulline production, approach to equilibrium; turnover only; type: biochemical; settings: 10 mM ornithine, 10 mM carbamylphosphate, 0.1 M Tris-HCl pH 8.5, 37°C
T1 construct: gene arcB
T1 sequence (Q839Q5 1-339): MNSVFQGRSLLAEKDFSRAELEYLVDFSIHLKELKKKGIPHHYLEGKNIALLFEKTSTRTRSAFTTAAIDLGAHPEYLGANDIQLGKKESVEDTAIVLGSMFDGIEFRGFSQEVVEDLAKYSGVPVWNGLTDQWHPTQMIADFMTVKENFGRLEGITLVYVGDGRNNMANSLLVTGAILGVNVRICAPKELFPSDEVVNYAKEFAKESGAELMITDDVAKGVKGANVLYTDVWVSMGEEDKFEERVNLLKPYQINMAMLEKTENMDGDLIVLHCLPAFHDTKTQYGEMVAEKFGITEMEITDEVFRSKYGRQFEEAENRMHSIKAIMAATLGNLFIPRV

[2] = target: T2, PTC (putrescine transcarbamylase) (Enterococcus faecalis, UniProt Q837U7); test: X-ray crystal structure, […] Å; type: binding; settings: bisubstrate analogue in active site; pH 5.5
T2 construct: gene ptcA

[3] = target: T2, PTC (putrescine transcarbamylase); test: inhibition of transcarbamylase activity, PAPU titration; type: biochemical; settings: putrescine or ornithine as substrate (one common curve); bisubstrate analogue inhibitor
[4] = target: T3, truncated PTC (PTC lacking the C-terminal helix 13) (Enterococcus faecalis, UniProt Q837U7); test: X-ray crystal structure, […] Å; type: binding; settings: bisubstrate analogue in active site; pH 7.5
T3 construct: gene ptcA

[5] = target: T2, PTC (putrescine transcarbamylase); test: X-ray crystal structure, […] Å; type: binding; settings: bisubstrate analogue in active site; pH 5.5; remark: listed apart in the source

T2 sequence (Q837U7 whole entry): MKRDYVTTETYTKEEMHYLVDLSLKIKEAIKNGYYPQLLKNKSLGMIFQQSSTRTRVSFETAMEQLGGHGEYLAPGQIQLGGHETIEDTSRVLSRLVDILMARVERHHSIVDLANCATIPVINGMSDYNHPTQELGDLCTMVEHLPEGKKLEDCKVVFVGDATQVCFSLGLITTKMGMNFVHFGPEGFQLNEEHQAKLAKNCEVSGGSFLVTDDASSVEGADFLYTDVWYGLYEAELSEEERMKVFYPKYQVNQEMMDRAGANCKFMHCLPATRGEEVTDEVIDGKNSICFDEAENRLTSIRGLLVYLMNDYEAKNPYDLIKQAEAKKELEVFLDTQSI
T3 sequence (Q837U7 1-317): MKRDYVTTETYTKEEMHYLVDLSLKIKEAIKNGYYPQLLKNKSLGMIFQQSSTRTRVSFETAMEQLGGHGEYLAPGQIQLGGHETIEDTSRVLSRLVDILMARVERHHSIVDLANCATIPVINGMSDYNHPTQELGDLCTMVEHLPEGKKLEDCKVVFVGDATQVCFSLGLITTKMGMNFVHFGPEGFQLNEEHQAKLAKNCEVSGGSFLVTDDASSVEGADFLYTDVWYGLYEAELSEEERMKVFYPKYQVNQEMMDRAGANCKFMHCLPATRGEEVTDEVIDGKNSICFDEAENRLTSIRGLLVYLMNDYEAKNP

Structure (SMILES): NCCC[C@H](N)C(=O)O [L-ornithine]
- citrulline production, approach to equilibrium; turnover only [1]: carbamylation of ornithine (open symbols) using either OTC (squares) or PTC (triangles)

Structure (SMILES): NCCCCNC(=O)CP(=O)(O)O [PAPU, N-(phosphonoacetyl)-putrescine]
- X-ray crystal structure, 2.5 Å [2]: 4A8H, 4A8P and 4A8T for PTC-PAPU, PTC-PALO and truncated PTC-PALO, respectively
- % activity [3]: PAPU inhibited similarly the activities of PTC with putrescine and with ornithine

Structure (SMILES): N[C@@H](CCCNC(=O)CP(=O)(O)O)C(=O)O [PALO, δ-N-(phosphonoacetyl)-L-ornithine]
- X-ray crystal structure, 1.59 Å [4]: 4A8H, 4A8P and 4A8T for PTC-PAPU, PTC-PALO and truncated PTC-PALO, respectively
- X-ray crystal structure, 2.0 Å [5]: 4A8H, 4A8P and 4A8T for PTC-PAPU, PTC-PALO and truncated PTC-PALO, respectively
